Source: patent publication US20230000876A1, “TREATING CANCERS WITH A CYCLIN-DEPENDENT KINASE INHIBITOR” (Nuvation Bio Inc., priority 2021, published 2023)

What was measured:
xMDA-MB-361 breast tumor = xMDA-MB-361 breast tumor model (ER-positive/HER2-positive); assay type: in vivo, female BALB/c nude mice; conditions: Group 5: Compound (I) 30 mg/kg PO QD*42 days
Description: Trastuzumab, tucatinib, Compound (I), and fulvestrant were tested in a xMDA-MB-361 breast tumor model (ER-positive/HER2-positive) on female BALB/c nude mice.

A375 = assay: Cell viability assay, melanoma cell line A375; assay type: cell-based
Description: (§1) 4.4.4 Compound Plate (10×) Preparation and Compound Treatment • 10× concentrate compound plate preparation: Add 198 μL of assay medium into each well of the V-bottom plate; then transfer 2 μL of the stock compound solution of each concentration from the stock plate. Add 2 μL of DMSO into the Blank and Control wells. Pipette up and down to mix well. This V-plate is designated as the 10× concentrate compound plate. • For day 0 plate, add 15 μL of the DMSO-medium into the Control wells. The final DMSO concentration was 0.1%. Then directly proceed to cell viability assay. • For assay plate, add 15 μL of the compound-medium of each well from the 10× concentrate compound plate into the cells in 96-well assay plate according to the plate map. Add 15 μL of the DMSO-medium into the Blank and Control wells. The final DMSO concentration was 0.1%. • Return the assay plate into incubator and incubate for 6 days.
(§2) The procedures were performed according to the Promega CellTiter-Glo Luminescent Cell Viability Assay Kit manual (Promega-G7573). • The CellTiter-Glo buffer was thawed and equilibrated to room temperature prior to use. • CellTiter-Glo Substrate was equilibrated to room temperature prior to use. • The entire liquid volume of CellTiter-Glo Buffer was transferred into the amber bottle containing CellTiter-Glo Substrate to reconstitute the lyophilized enzyme/substrate mixture. […] Plates were covered with aluminum foil to protect from light. • The contents were mixed for 2 minutes on an orbital shaker to induce cell lysis. • The plate was incubated at room temperature for 20 minutes to stabilize luminescent signal. • Record luminescence on the 2104 EnVision plate reader.
(§3) Inhibition rate (IR) of the tested compounds was determined by the following formula: IR (%)=(1−(RLU compound−RLU day0)/(RLU control−RLU day0))*100%. The inhibitions of different dose of compound were calculated in Excel file, and then were used to plot inhibition curves and evaluate related parameters, such as Min (%), Max (%) and GI50. […]

U-118MG xenograft tumors = assay: U-118MG glioma subcutaneous xenograft model; assay type: in vivo, female CB17 SCID mice; conditions: Group 3: Compound (I) 30 mg/kg PO, QD; PG-D27
SK-MEL-28 = assay: Cell viability assay, melanoma cell line SK-MEL-28; assay type: cell-based
Description: as §1, §2, §3

CC(C)N1CCOc2c(F)cc(-c3nc(Nc4ccc(C5CCN(C)CC5)cn4)ncc3F)cc21 [Compound (I), 5-fluoro-4-(8-fluoro-4-isopropyl-3,4-dihydro-2H-benzo[b][1,4]oxazin-6-yl)-N-(5-(1-methylpiperidin-4-yl)pyridin-2-yl)pyrimidin-2-amine]
Tumor volume (mean ± SEM) (xMDA-MB-361 breast tumor; Day 0): 157 ± 11 mm^3
Tumor volume (mean ± SEM) (xMDA-MB-361 breast tumor; Day 3): 202 ± 10 mm^3
Tumor volume (mean ± SEM) (xMDA-MB-361 breast tumor; Day 7): 271 ± 34 mm^3
Tumor volume (mean ± SEM) (xMDA-MB-361 breast tumor; Day 10): 316 ± 43 mm^3
Tumor volume (mean ± SEM) (xMDA-MB-361 breast tumor; Day 14): 342 ± 49 mm^3
Tumor volume (mean ± SEM) (xMDA-MB-361 breast tumor; Day 17): 326 ± 70 mm^3
Tumor volume (mean ± SEM) (xMDA-MB-361 breast tumor; Day 21): 360 ± 84 mm^3
Tumor volume (mean ± SEM) (xMDA-MB-361 breast tumor; Day 24): 429 ± 119 mm^3
Tumor volume (mean ± SEM) (xMDA-MB-361 breast tumor; Day 28): 542 ± 146 mm^3
Tumor volume (mean ± SEM) (xMDA-MB-361 breast tumor; Day 31): 571 ± 150 mm^3
Tumor volume (mean ± SEM) (xMDA-MB-361 breast tumor; Day 35): 587 ± 148 mm^3
Tumor volume (mean ± SEM) (xMDA-MB-361 breast tumor; Day 38): 629 ± 164 mm^3
Tumor volume (mean ± SEM) (xMDA-MB-361 breast tumor; Day 42): 608 ± 145 mm^3
GI50 (A375; Homo sapiens, A-375, read-out: Absolute GI50): 156 nM
Max (%) (A375; inhibition rate): 101.21%
Min (%) (A375; inhibition rate): −0.12%
TGI (U-118MG xenograft tumors): 96.40%
GI50 (SK-MEL-28; Homo sapiens, SK-MEL-28, read-out: Absolute GI50): 152 nM
Max (%) (SK-MEL-28; inhibition rate): 106.21%
Min (%) (SK-MEL-28; inhibition rate): 1.70%
